This passage reports IC50 results from BindingDB's records for patent US11926614 (Oslo Universitetssykehus, 2024).

The target in the assay is T1, Poly [ADP-ribose] polymerase tankyrase-2 (Homo sapiens, UniProt Q9H2K2).
T1 sequence (Q9H2K2 whole entry): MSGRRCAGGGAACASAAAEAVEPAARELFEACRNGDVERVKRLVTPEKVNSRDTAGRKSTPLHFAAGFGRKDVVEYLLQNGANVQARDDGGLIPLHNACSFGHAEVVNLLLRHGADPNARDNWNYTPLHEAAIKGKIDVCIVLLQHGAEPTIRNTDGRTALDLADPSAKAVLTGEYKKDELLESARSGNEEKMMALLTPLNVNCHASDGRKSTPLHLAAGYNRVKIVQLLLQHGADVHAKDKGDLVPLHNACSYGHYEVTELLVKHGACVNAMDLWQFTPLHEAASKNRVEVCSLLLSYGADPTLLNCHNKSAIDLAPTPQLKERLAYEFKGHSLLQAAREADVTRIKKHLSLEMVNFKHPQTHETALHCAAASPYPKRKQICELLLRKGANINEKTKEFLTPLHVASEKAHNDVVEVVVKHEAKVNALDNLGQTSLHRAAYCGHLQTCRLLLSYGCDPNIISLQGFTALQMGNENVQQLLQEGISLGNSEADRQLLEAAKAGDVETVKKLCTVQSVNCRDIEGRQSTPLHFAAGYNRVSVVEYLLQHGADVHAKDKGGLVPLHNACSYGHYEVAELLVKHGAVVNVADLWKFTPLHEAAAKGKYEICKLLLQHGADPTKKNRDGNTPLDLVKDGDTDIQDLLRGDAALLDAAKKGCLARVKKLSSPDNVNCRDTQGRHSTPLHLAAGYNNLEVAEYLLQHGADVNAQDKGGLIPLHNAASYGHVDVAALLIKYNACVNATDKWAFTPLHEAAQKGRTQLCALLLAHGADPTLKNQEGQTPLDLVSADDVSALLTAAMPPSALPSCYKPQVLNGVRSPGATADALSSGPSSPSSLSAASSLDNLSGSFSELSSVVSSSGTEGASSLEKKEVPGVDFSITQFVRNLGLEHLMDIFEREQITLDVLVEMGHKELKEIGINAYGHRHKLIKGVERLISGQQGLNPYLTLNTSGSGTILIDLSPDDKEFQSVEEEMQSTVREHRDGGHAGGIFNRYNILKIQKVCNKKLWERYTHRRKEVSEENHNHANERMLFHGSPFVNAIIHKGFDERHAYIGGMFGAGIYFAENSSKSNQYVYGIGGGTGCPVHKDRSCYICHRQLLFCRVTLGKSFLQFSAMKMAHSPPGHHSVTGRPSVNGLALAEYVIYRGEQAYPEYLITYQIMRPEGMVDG
Briefly: Biochemical Assay. An excerpt: IC50 calculations:XLfit (idbs) was used to determine the IC50-values in inhibition experiments. The following formula was chosen to fit the data points (Langmuir Binding Isotherm):fit=((A+(B*x))+[…]*(1−exp((−1*D)*x)))/D)), res=(y−fit)

Regarding `O=C(N[C@H]1C[C@H](c2nnc(-c3nccs3)n2-c2ccccc2F)C1)c1ccnc2cc(F)cnc12` [US11926614, Example 29], the half-maximal inhibitory concentration (IC50) worked out at 2 nM. This counts as single-digit nanomolar.

What is called IC50 is the midpoint of a concentration-inhibition curve.
